Results on two compounds are retold here after patent publication US4574126A, “Pyridine derivatives histamine H2 -antagonists” (Smith Kline & French Laboratories Limited, priority 1982, dated 1986).

The target of assay [1] is T1, histamine H2 -receptors (Rattus norvegicus, UniProt P25102).
T1 construct: histamine-stimulated secretion of gastric acid from the lumen-perfused stomachs of rats anaesthetised with urethane; from tissue; host or cells: lumen-perfused stomach of urethane-anaesthetised female Sprague-Dawley rats (in vivo)
Kind of assay: lumen-perfused rat test: inhibition of histamine-stimulated secretion of gastric acid. The format is in vivo. The conditions noted are these: iv, lumen-perfused stomachs of rats anaesthetised with urethane, read-out: ED50 (for inhibiting sub-maximal acid secretion by 50%). The source says: These are actions of histamine which, according to Ash and Schild, Brit. J. Pharmac. Chemother. 27 247 (1966), are not mediated by histamine H1 -receptors.
Inhibition of histamine-stimulated secretion of gastric acid can be measured by using a lumen-perfused stomachs of rats anaesthetised with urethane using the following modification of the method of Ghosh and Schild, Brit. J. Pharmac. Chemother. 13 54 (1958):
Female Sprague-Dawley rats (160-200 g) are starved overnight and anaesthetised with urethane given intraperitoneally in one dose (200 mg). The trachea and jugular veins are both cannulated and a mid-line incision is made in the abdomen exposing the stomach which is cleared from connective tissue. […] The effluent is passed over a micro-flow pH electrode and recorded by a pH meter fed to an anti-log unit and flat-bed recorder. The basal output of acid secretion from the stomach is monitored by measurement of the pH of the perfusion effluent. A sub-maximal dose of histamine is continuously infused into the jugular vein and produces a stable plateau of acid secretion and the pH of the perfusion effluent is determined when this condition is obtained. […] The difference in acid secretion between basal output and the histamine stimulated plateau level and the reduction of acid secretion caused by the test compound are calculated from the difference in pH of the perfusion effluent. […]

In assay [2] the target is T2, histamine H2 -receptors (Cavia porcellus, UniProt P47747).
T2 construct: a spontaneously beating isolated portion of the guinea pig right atrium; from tissue; host or cells: isolated guinea pig right atrium
Kind of assay: guinea pig atrium test: inhibition of histamine-induced tachycardia in isolated right atrium. The format is biochemical. The conditions noted are these: histamine-induced rate increase, 60 min contact, read-out: pA2 (converted). The protocol: In the guinea pig atrium test a spontaneously beating isolated portion of the guinea pig right atrium is secured under tension (300 mg) between an anchorage and a transducer in a 15 ml tissue bath and immersed in McEwens solution with constant aeration at a temperature of 37° C. The output from the transducer is amplified. Output is in turn fed to a flat bed recorder. Measured amounts of histamine are added to the tissue bath so that the histamine concentration increases step-wise until the rate of beating reaches a maximum. The tissue bath is washed out and filled with fresh McEwens solution containing compound under test. The solution is left in contact with the tissue for 60 min. and measured amounts of histamine are added again until a maximum rate is recorded. The assay is repeated with increasing concentrations of test compound and the dose of histamine giving 50% of maximum rate is noted. A dose ratio (DR) was calculated by comparing the concentrations of histamine required to produce 50% maximum response in the absence and in the presence of the antagonist. A plot of Log DR-1 against LOG D (the concentration of compound under test) is made and the point of intersection with the Log (DR-1) ordinate is taken as the measure of the activity (pA2 value).

Molecules are shown by their SMILES.

T1 sequence (P25102 whole entry, the tested form may be a part): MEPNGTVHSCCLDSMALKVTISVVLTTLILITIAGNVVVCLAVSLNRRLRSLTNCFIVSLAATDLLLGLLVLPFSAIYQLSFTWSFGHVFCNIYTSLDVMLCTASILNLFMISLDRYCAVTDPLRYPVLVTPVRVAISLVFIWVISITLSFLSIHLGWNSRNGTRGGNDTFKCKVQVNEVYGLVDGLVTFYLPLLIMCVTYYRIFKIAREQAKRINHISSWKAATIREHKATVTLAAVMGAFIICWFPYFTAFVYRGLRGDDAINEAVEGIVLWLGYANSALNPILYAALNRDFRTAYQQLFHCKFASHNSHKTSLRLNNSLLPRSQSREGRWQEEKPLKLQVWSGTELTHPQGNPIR
T2 sequence (P47747 whole entry): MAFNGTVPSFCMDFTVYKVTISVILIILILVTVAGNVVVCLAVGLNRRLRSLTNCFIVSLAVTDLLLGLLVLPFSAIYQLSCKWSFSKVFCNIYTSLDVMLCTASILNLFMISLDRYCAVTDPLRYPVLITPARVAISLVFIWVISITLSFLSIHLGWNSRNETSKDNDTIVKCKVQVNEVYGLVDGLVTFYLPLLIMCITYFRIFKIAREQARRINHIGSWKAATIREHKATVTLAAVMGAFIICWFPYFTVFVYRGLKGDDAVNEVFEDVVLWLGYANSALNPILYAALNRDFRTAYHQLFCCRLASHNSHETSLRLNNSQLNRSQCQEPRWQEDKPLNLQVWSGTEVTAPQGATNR

On to `CNC(=NCCSCc1cc(CN(C)C)ccn1)NC#N` [Example 1, N-cyano-N'-methyl-N"-[2-(4-dimethylaminomethyl-2-pyridylmethylthio)ethyl]-guanidine], for which the ED50 in assay [1] was below 0.1 µmol/kg. For the same compound, in assay [2], the Kb was below 100 nM.
Taken in the same sequence, the figures for `CNC(=C[N+](=O)[O-])NCCSCc1cc(CN(C)C)ccn1` [Example 2, 1-nitro-2-methylamino-2-[2-(4-dimethylaminomethyl-2-pyridylmethylthio)ethylamino]-ethylene] were below 0.1 µmol/kg and below 100 nM.
